Laboratory results reported in patent EP4327830A1 (priority 2022, dated 2024).

How the values were obtained:
[1] = biological target: protein phosphatase-1 catalytic subunit (a-Isoform from rabbit, Sigma-Aldrich) (Oryctolagus cuniculus, UniProt P62139); format: biochemical; conditions: read-out: IC50_PPI + SE
HEK293 OATP1B3+ = conditions: for IC50: read-out: IC50_cytotox on OATP1B3 expressing cell line + SE
HEK293 OATP1B1+ = conditions: for IC50: read-out: IC50_cytotox on OATP1B1 expressing cell line + SE
[2] = biological target: type 1 protein phosphatase; conditions: cited from earlier work
[3] = test system: type 2A protein phosphatases; conditions: cited from earlier work

protein phosphatase-1 catalytic subunit (a-Isoform from rabbit, Sigma-Aldrich), sequence (P62139 whole entry, looked up, canonical isoform): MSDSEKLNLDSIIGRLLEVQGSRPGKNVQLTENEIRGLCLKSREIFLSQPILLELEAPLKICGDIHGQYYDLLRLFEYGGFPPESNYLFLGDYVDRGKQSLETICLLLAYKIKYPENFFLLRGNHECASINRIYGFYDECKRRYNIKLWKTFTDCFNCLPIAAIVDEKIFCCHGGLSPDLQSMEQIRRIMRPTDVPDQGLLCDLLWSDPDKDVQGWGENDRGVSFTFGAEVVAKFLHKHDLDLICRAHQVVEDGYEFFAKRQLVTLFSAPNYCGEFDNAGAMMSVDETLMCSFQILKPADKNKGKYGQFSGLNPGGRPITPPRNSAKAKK

Compound: C=C1C(=O)N[C@H](C)C(=O)N[C@@H](CCCN=[N+]=[N-])C(=O)N[C@@H](C(=O)O)CC(=O)N[C@@H](CCCNC(=N)N)C(=O)N[C@@H](/C=C/C(C)=C/[C@H](C)[C@H](Cc2ccccc2)OC)[C@H](C)C(=O)N[C@@H](C(=O)O)CCC(=O)N1C [MC-(Aznva)R, cyclo(D-Ala-Aznva-D-Asp-R-Adda-D-Glu-Mdha)]
- IC50 [1]: 46.7 ± 9.2 nM
- Ratio of IC50_cytotox OATP1B3/ IC50_PPI (HEK293 OATP1B3+): 0.58
- IC50 (HEK293 OATP1B3+): 27 ± 1.5 nM
- Ratio of IC50_Cytotox OATP1B1/ IC50_PPI (HEK293 OATP1B1+): 0.52
- IC50 (HEK293 OATP1B1+): 24.1 ± 11.5 nM

Compound: C#CCOc1ccc(C[C@@H]2NC(=O)[C@@H](C)NC(=O)C(=C)N(C)C(=O)CC[C@H](C(=O)O)NC(=O)[C@@H](C)[C@H](/C=C/C(C)=C/[C@H](C)[C@H](Cc3ccccc3)OC)NC(=O)[C@H](CCCNC(=N)N)NC(=O)C[C@H](C(=O)O)NC2=O)cc1 [MC-(Prtyr)R, cyclo(D-Ala-Prtyr-D-Asp-R-Adda-D-Glu-Mdha)]
- IC50 [1]: 8.4 ± 5.4 nM
- Ratio of IC50_cytotox OATP1B3/ IC50_PPI (HEK293 OATP1B3+): 4.81
- IC50 (HEK293 OATP1B3+): 40.4 ± 36.6 nM
- Ratio of IC50_Cytotox OATP1B1/ IC50_PPI (HEK293 OATP1B1+): 9.79
- IC50 (HEK293 OATP1B1+): 82.2 ± 4.5 nM

Compound: microcystin-LR
- IC50 [2]: 0.03 nM
- IC50 [3]: 0.04 nM
